According to PMC6980506, “Comparative pharmacokinetics and pharmacodynamics of the advanced Retinol-Binding Protein 4 antagonist in dog and cynomolgus monkey” (PLoS ONE, 2020):

Experiments:
[1] = Metabolic stability in dog liver microsomes; format: in vitro ADME; conditions: male, beagle, pH 7.4, 1 mg/mL, read-out: Microsomal Stability (% Remaining at 30 min)
Method: (§1) All measurements were done in duplicate. Pooled mixed gender human donor microsomes, male beagle dog microsomes and male cynomolgus monkey were obtained from BioIVT (Baltimore, MD). […] A mixture containing 50 mM potassium phosphate buffer pH 7.4 and 1 mg/mL liver microsomes was pre-warmed for 10 min at 37°C in a shaking water bath, followed by the addition of test compound. Final DMSO concentration in the reaction mix was 0.1%. […] The final volume of the reaction mixture was 800 μL, containing 1 mg/mL liver microsomes, and 1 μM test compound. Aliquots (100 μL) of reaction mixtures were removed from the incubation plate at pre-defined timepoints and mixed with 150 μL of ice-cold acetonitrile, incubated on ice for 15 min, and samples were centrifuged (3,600 rpm, 10 min, 4°C) to precipitate protein. The supernatants were diluted 1:1 (v/v) with water containing the internal standard and subjected to the LC/MS analysis.

[2] = Metabolic stability in cynomolgus monkey liver microsomes; format: in vitro ADME; conditions: male, pH 7.4, Cyno liver microsomes, 1 mg/mL, read-out: Microsomal Stability (% Remaining at 30 min)
Method: as §1

[3] = Metabolic clearance in dog hepatocytes; format: in vitro ADME; conditions: male, beagle, cryopreserved hepatocytes, read-out: Hepatocyte CLint (intrinsic clearance)
Method: (§2) All measurements were done in duplicate. Testosterone and 7-hydroxycoumarin were used as positive controls. Pooled cryopreserved human hepatocytes, cryopreserved male beagle dog hepatocytes, and cryopreserved male cynomolgus monkey hepatocytes were obtained from BioIVT (Baltimore, MD). Compound at 1 μM was incubated with 1 x 10^6 cells. Final DMSO concentration in the reaction mix was 0.1%. Aliquots (100 μL) of reaction mixtures were removed from the incubation plate at different timepoints and mixed with 150 μL of ice-cold acetonitrile. After incubation on ice for 15 min, the samples were centrifuged (3,600 rpm, 10 min, 4°C) to precipitate protein. The supernatants were diluted 1:1 (v/v) with water containing internal standards and subjected to the LC/MS analysis. Hepatic clearance was calculated using the well-stirred liver model

[4] = Metabolic clearance in human hepatocytes; format: in vitro ADME; conditions: cryopreserved hepatocytes, read-out: Hepatocyte CLint (intrinsic clearance)
Method: as §2

[5] = parameters: method as in PMID 26181715; conditions: human liver microsomes; cited from earlier work

Cc1cc(C(=O)O)nc(N2C[C@H]3C[C@@H](c4ccccc4C(F)(F)F)C[C@H]3C2)n1 [BPN-14136]
remaining at 0.5 h, 1 μM [1]: 93% | remaining at 0.5 h, 1 μM [2]: 95% | hepatocyte CLint at 1 μM [3]: < 0.7 µL/min/1e6 cells | hepatocyte CLint at 1 μM [4]: < 0.7 µL/min/1e6 cells | stability in liver microsomes, % remaining at 30 min [5]: > 90%
